Measurements from publication PMC12040169 (PLOS Biology, 2025).

Test: in vitro
Details: human, hela cells

| Compound | viability at 28.5 h, 10 µM (% viability) [%] | viability at 28.5 h, 10 µM [%] |
| --- | --- | --- |
| Cc1noc(C)c1NC(=O)c1c(-c2ccccc2)noc1C [CBK200314] | 91.8 |  |
| COc1ccc(C(=O)N2Cc3ccccc3C2)c(OC)n1 [CBK200317] | 103 |  |
| O=C(c1n[nH]c2ccccc12)N1CCc2ccccc2C1 [CBK200330] | 94.4 |  |
| O=C(c1c[nH]c2ccccc12)N1CCc2ccccc2C1 [CBK200331] | 113 |  |
| Cn1cc(C(=O)N2CCc3ccccc3C2)c2ccccc21 [CBK200338] | 90 |  |
| CN(C)c1ccc(CC(=O)N2CCc3ccccc3C2)cc1 [CBK200340] | 93.7 |  |
| O=C(c1nc2ccccc2[nH]1)N1CCc2ccccc2C1 [CBK200341] | 100 |  |
| O=C(c1cscn1)N1CCc2ccccc2C1 [CBK200342] | 96.6 |  |
| O=C(Cc1ccccn1)N1CCCc2ccccc21 [CBK200343] | 105 |  |
| O=C(CCc1cccnc1)N1CCCc2ccccc21 [CBK200344] | 100 |  |
| Cc1nc(C)c(C(=O)N2CCCc3ccccc32)s1 [CBK200345] | 112 |  |
| CN(C)c1ccc(CC(=O)N2CCCc3ccccc32)cc1 [CBK200347] | 83.6 |  |
| Cc1noc(C)c1C(=O)NC1Cc2ccccc2C1 [CBK200350] | 91.4 |  |
| O=C(CCc1cccnc1)NC1Cc2ccccc2C1 [CBK200352] | 97.4 |  |
| O=C(NC1Cc2ccccc2C1)c1cnccc1C(F)(F)F [CBK200353] | 98.6 |  |
| O=C(NC1Cc2ccccc2C1)c1ccc2ncccc2c1 [CBK200354] | 96.2 |  |
| O=C(NC1Cc2ccccc2C1)c1ccc2ccccc2n1 [CBK200355] | 81.8 |  |
| Cc1nc(C)c(C(=O)NC2Cc3ccccc3C2)s1 [CBK200357] | 91.2 |  |
| O=C(NC1Cc2ccccc2C1)c1nc2ccccc2[nH]1 [CBK200361] | 102 |  |
| O=C(NC1Cc2ccccc2C1)c1cscn1 [CBK200363] | 93.5 |  |
| O=C(CCN1CCCCC1)NC1Cc2ccccc2C1 [CBK200364] | 98.3 |  |
| O=C(NCc1ccccc1)c1ccc2[nH]nnc2c1 [CBK200368] | 86.9 |  |
| C[C@@H]1CN(C(=O)c2cncn2C)C[C@H](C)O1 [CBK200370] | 90.3 |  |
| C[C@@H]1CN(C(=O)c2cscn2)C[C@H](C)O1 [CBK200371] | 90 |  |

| Compound | viability at 28.5 h, 10 µM (% viability) [%] | viability at 28.5 h, 10 µM [%] |
| --- | --- | --- |
| O=C(Cn1cnnn1)NC1CCCC1 [CBK200372] | 94.9 |  |
| CCN1CCN(C(=O)c2cnccn2)CC1 [CBK200373] | 81.6 |  |
| CCN1CCN(C(=O)c2csnn2)CC1 [CBK200376] | 92.5 |  |
| CCN1CCN(C(=O)c2cc(C)[nH]n2)CC1 [CBK200377] | 108 |  |
| CCN1CCN(C(=O)COc2cccnc2)CC1 [CBK200378] | 94.8 |  |
| Cc1ccc(NC(=O)c2cncnc2)c(C)n1 [CBK200380] | 81.1 |  |
| Cc1noc(C)c1NC(=O)CN1CCOCC1 [CBK200381] | 103 |  |
| Cc1ccc(NC(=O)Cc2ccncc2)c(C)n1 [CBK200385] | 90 |  |
| Cc1ccc(NC(=O)CCc2cccnc2)c(C)n1 [CBK200386] | 101 |  |
| Cc1ccc(NC(=O)CN(C)C)c(C)n1 [CBK200388] | 99.6 |  |
| Cc1noc(C)c1NC(=O)c1ccncc1 [CBK200389] | 89.9 |  |
| Cc1noc(C)c1NC(=O)CCc1cccnc1 [CBK200392] | 99.6 |  |
| Cc1cc(C(=O)Nc2c(C)noc2C)n[nH]1 [CBK200395] | 87.4 |  |
| Cc1noc(C)c1NC(=O)c1cscn1 [CBK200397] | 95.2 |  |
| Cc1ncccc1C(=O)N1CCC(F)CC1 [CBK200398] | 85.4 |  |
| COCCC(=O)N1CCC(F)CC1 [CBK200399] | 99.1 |  |
| O=C(c1cnccc1C(F)(F)F)N1CCc2ccccc21 [CBK200401] | 112 |  |
| O=C(c1ccc2ncccc2c1)N1CCc2ccccc21 [CBK200403] | 81.8 |  |
| O=C(c1ccc2ccccc2n1)N1CCc2ccccc21 [CBK200404] | 94 |  |
| Cn1cc(C(=O)N2CCc3ccccc32)c2ccccc21 [CBK200407] | 80.6 |  |
| O=C(c1csnn1)N1CCc2ccccc21 [CBK200408] | 86 |  |
| O=C(c1ccno1)N1CCc2ccccc21 [CBK200409] | 104 |  |
| CCOc1ccsc1C(=O)N1CCc2ccccc21 [CBK200410] | 100 |  |
| O=C(CCN1CCCCC1)N1CCc2ccccc21 [CBK200413] | 91.1 |  |

| Compound | viability at 28.5 h, 10 µM (% viability) [%] | viability at 28.5 h, 10 µM [%] |
| --- | --- | --- |
| COC(=O)N1CCN(c2ccccc2)CC1 [CBK200414] | 85.5 |  |
| C[C@@H]1CN(C(=O)OCCc2cccs2)C[C@H](C)O1 [CBK200416] | 95.5 |  |
| Cc1ncsc1CCOC(=O)N1C[C@@H](C)O[C@@H](C)C1 [CBK200418] | 96.3 |  |
| CN1CCN(CCOC(=O)N2CCN(C(c3ccccc3)c3ccccc3)CC2)CC1 [CBK200419] | 89 |  |
| Nc1ncc(-c2cccc(C(=O)O)c2)nc1-c1ccc(O)cc1 [CBK200420] | 107 |  |
| CN1CCN(C(=O)c2ccc(-c3cnc(N)c(-c4ccc(O)cc4)n3)cc2F)CC1 [CBK200421] | 90.6 |  |
| Nc1ncc(-c2ccc(C(=O)N3CCOCC3)cc2)nc1-c1ccsc1 [CBK200422] | 110 |  |
| O=C(O)c1cccc(NS(=O)(=O)c2cc3ccccc3o2)c1 [CBK200423] | 97.4 |  |
| CN1CCC(N(C)C(=O)c2cc3oc(-c4ccccc4)nc3c(=O)n2C)C1 (centres unmarked) [CBK200424T] | 93.9 |  |
| CN1CCN(c2ccc(NC(=O)c3cc4oc(-c5ccccc5)nc4c(=O)n3C)cc2)CC1 [CBK200425] | 94.9 |  |
| CNc1ncnc2c1ncn2[C@@H]1O[C@H](CO)[C@@H](O)[C@H]1O [CBK200610] | 101 |  |
| Cn1c(=O)c2c(ncn2CC(O)CO)n(C)c1=O (centres unmarked) [CBK200637] | 98.5 |  |
| CN(C)CC/C=C1/c2ccccc2COc2ccc(CC(=O)O)cc21 [CBK200992] | 92.4 |  |
| Nc1nccc2c1ncn2[C@H]1C[C@@H](O)[C@@H](CO)O1 [CBK201157] | 97.1 |  |
| O=c1cnn([C@H]2C[C@@H](O)[C@@H](CO)O2)c(=O)[nH]1 [CBK201162] | 93.4 |  |
| O=[N+]([O-])c1ccc2c(ccn2C2CC(O)C(CO)O2)c1 (centres unmarked) [CBK201163] | 95 |  |
| COC1C(O)C(CO)OC1n1ccc(=O)[nH]c1=O (centres unmarked) [CBK201166] | 93.6 |  |
| OC[C@H]1O[C@@H](n2cnc3c(Cl)ncnc32)C[C@H]1O [CBK201167] | 99.6 |  |
| COC1C(O)C(CO)OC1n1cc(F)c(=S)[nH]c1=O (centres unmarked) [CBK201168] | 96 |  |
| CC(C)CN(/C=N/c1nc(OC(=O)N(c2ccccc2)c2ccccc2)nc2c1ncn2C1CC(O)C(CO)O1)CC(C)C (centres unmarked) [CBK201170] |  | 93 |
| Nc1nc2c(ncn2[C@@H]2O[C@H](CO)[C@H](O)C2O)c(=O)[nH]1 (some centres unmarked) [CBK201173] | 96 |  |
| CN(C)/C=N/c1ncc2ncn(C3CC(O)C(CO)O3)c2n1 (centres unmarked) [CBK201175] | 90.8 |  |
| Nc1ncnc2c1ccn2[C@@H]1O[C@H](CO)[C@H](O)C1O (some centres unmarked) [CBK201176] |  | 0 |
